Data published in paper PMC3889641 (Inflammatory bowel diseases, 2013).
Like-named read-outs stand apart in the source and are kept apart here.

Legend:
[1] = system: Th1, Th2, Th17 and IL-1 related cytokines; type: in vivo, rat (Sprague-Dawley)
collagen = type: in vivo, rat (Sprague-Dawley); conditions: 18 mg/kg/d i.p., 42 d
αVβ3 integrin = conditions: RGD mimetic peptides, like cilengitide, ref [43], cited from earlier work
[2] = system: LAP-β1 and αVβ3 integrin association in rat colon muscle; conditions: 18 mg/kg/d i.p., 42 d
CD11b = CD11b immunofluorescence; type: in vivo, rat (Sprague-Dawley); conditions: 42 d
αVβ5 = conditions: read-out: IC50 for αVβ5; stated in Discussion; no reference or method printed; cited from earlier work
[3] = system: Smad3 / phospho-Smad3(Ser423/425); experiment: Smad3 phosphorylation; type: in vivo, rat (Sprague-Dawley); conditions: EtOH treated rats, cilengitide 18 mg/kg/d i.p., 42 d
[4] = system: phospho-Smad3(Ser423/425); experiment: pSmad3; set-up: species or system human; rat; conditions: legend of Fig. 2C-F; rats 18 mg/kg/d i.p.
MPO = type: in vivo, rat (Sprague-Dawley); conditions: TNBS/cilengitide rats, 42 d; TNBS/PBS 6.06 ± 0.30
[5] = system: cultured hepatic stellate cells; conditions: ref [42]; cited from earlier work
[6] = system: rat bile duct ligation model of cirrhosis; conditions: ref [42]; cited from earlier work
[7] = TNBS/cilengitide rats, 42 d, vs controls

Substance: cilengitide
- IFN-γ level [1, 7]: significantly lower than controls
- IL-1α level [1, 7]: significantly lower than controls
- IL-1β level [1, 7]: significantly lower than controls
- IL-6 level [1, 7]: significantly lower than controls
- IL-10 level [1, 7]: significantly lower than controls
- TNF-α level [1, 7]: significantly lower than controls
- levels of many cytokines ([1]; after 42 d of treatment with cilengitide): not altered
- GM-CSF level ([1]; cilengitide, chronic TNBS model (Discussion)): increase the levels of GM-CSF
- collagen protein (Sircol assay) (collagen; EtOH/Cilengitide rats, EtOH/PBS 2.5 ± 0.13): 4.5 ± 0.23 ng/mL
- collagen protein (Sircol assay) (collagen; TNBS/cilengitide rats, TNBS/PBS 38 ± 1.9): 9.5 ± 0.48 ng/mL
- αVβ3 integrin function at high concentrations (αVβ3 integrin; high concentrations): inhibition of αVβ3 integrin function at the high concentrations
- αVβ3 integrin function at lower concentrations (αVβ3 integrin; lower concentrations): activation of αVβ3 integrin at lower concentrations
- association of LAP-β1 with integrin β3 ([2]; EtOH/cilengitide rats, EtOH/PBS 17.5 ± 1.0): 20.2 ± 1.2 pixels/hpf
- association of LAP-β1 and αVβ3 ([2]; TNBS/cilengitide rats, TNBS/PBS 139 ± 8.0): 22.9 ± 1.3 pixels/hpf
- CD11b immunofluorescence (CD11b; EtOH/cilengitide rats, EtOH/PBS 450 ± 23): 585 ± 30 pixels/hpf
- CD11b immunofluorescence (CD11b; TNBS/cilengitide rats, TNBS/PBS 550 ± 28): 500 ± 25 pixels/hpf
- IC50 (αVβ5): 37 nM
- Smad3(Ser423/425) phosphorylation [3]: did not affect phosphorylation
- pSmad3(Ser423/425) levels (in words) [4]: inhibited by cilengitide
- MPO activity (MPO): 4.49 ± 0.23 ng/µg protein
- anti-fibrotic effect in vitro [5]: anti-fibrotic
- fibrosis in vivo [6]: fibrosis worsened
